Data as given in US6440659B1, “Inhibitors of retroviral protease as inducers of reversible insulin resistance in vitro and in vivo” (Washington University, priority 2000, dated 2002).
Each block holds one compound with its values, some of them ahead of it.

Assays:
3T3-L1 adipocytes = assay: [3H]-2-deoxyglucose uptake in 3T3-L1 adipocytes, basal and insulin-stimulated; assay type: cell-based; details: for effect on insulin-stimulated glucose uptake relative to indinavir: 50 μM (FIG. 1B); for effect on basal glucose uptake: basal conditions
Protocol: FIG. 1A. […] Results from three experiments were normalized to the value obtained from insulin-stimulated control cells and are shown as the mean±S.E. (n=6). FIG. 1B. […] Results were normalized to the value obtained from insulin-stimulated control cells and are shown as the mean±S.E. (n=3). 3T3-L1 fibroblasts obtained from the American Type Culture Collection were grown to confluence and 48 h later subjected to the differentiation protocol described previously (Tordjman et al. 1989). Mature 3T3-L1 adipocytes were maintained in DMEM supplemented with 10% fetal bovine serum and used 10 to 15 d post-differentiation. 3T3-L1 adipocytes grown in 3.5 cm dishes were serum-starved for at least 3 hours and then washed three times with Krebs-Ringer phosphate buffer. […] Stock solutions of indinavir and amprenavir were made in water. Ritonavir was dissolved in ethanol.

Glut4 [1] = target: T1, Glut4 (Rattus norvegicus, UniProt P19357); assay: [3H]-2-deoxyglucose uptake in Xenopus oocytes expressing Glut4; assay type: cell-based; details: for inhibition at 50 µM: 50 μM (FIG. 3B)
T1 construct: expressed in transfected cells; host or cells: Xenopus laevis oocytes, microinjected with in vitro transcribed mRNA
T1 sequence (P19357 1-509): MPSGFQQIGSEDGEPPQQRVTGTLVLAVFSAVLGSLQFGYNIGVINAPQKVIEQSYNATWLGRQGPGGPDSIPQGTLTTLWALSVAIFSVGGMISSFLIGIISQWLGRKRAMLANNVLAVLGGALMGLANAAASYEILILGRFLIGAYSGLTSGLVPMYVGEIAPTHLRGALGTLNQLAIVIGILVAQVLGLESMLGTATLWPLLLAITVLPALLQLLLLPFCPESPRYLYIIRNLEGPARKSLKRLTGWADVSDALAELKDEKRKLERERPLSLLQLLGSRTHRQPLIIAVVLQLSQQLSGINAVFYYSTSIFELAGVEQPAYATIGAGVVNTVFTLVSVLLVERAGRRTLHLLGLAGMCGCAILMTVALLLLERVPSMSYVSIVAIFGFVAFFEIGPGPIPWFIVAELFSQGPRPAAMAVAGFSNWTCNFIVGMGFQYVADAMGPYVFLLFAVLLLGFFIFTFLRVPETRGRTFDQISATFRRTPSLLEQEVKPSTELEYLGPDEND
Protocol: (§1) FIG. 3A. Xenopus oocytes heterologously expressing either Glut1 or Glut4 isoforms were used for [^3H]-2-deoxyglucose uptake measurement in Barth's Saline at 22° C. for 30 min. […] Plotted are the mean uptake from 15-20 oocytes±S.E. [* indicates p<0.01 compared with control (ANOVA with Fischer's PLSD posthoc analysis).]
(§2) FIG. 3B. Glucose uptake in X. laevis oocytes as described above. […] The data are normalized to the uptake from the control oocytes which were not exposed to protease inhibitor. [* indicates p<0.0001 compared with control (ANOVA with Fischer's PLSD posthoc analysis).]
(§3) Xenopus laevis oocytes were prepared and injected as described previously (Keller et al., 1989) with 50 ng of either Glut1 or Glut4 mRNA synthesized in vitro (Megascript RNA synthesis kit, Ambion). After a three day incubation in Barth=s saline containing albumin at 18° C., groups of 15-20 oocytes were washed and [^3H]-2-deoxyglucose (50 μM) uptake measurements were performed in Barth's saline at 22° C. for 30 minutes.

[2] = test system: insulin receptor (IR), IRS-1 and Akt phosphorylation; assay: Immunoblot of insulin signaling (IR, IRS-1, Akt phosphorylation) in 3T3-L1 adipocytes; assay type: cell-based; details: 100 μM for 4 h, 1 μM insulin 20 min
Protocol: Cells were further incubated for 20 min with or without 1 μM insulin, and subcellular fractions were subsequently isolate. Plasma membrane (PM), low density microsomal (LDM), and cytosolic (CYT) fractions were subjected to immunoblot analysis using anti-phosphotyrosine antibodies.
Whole cell lysates from 3T3-L1 adipocytes from samples treated as described above were subjected to immunoblot analysis using anti-phospo Akt antibodies, which recognize Akt phosphorylated on threonine 308 and serine 473.

Glut1 [3] = target: T2, Glut1 (Homo sapiens, UniProt P11166); assay: [3H]-2-deoxyglucose uptake in Xenopus oocytes expressing Glut1; assay type: cell-based; details: 22° C., 30 min
T2 construct: expressed in transfected cells; host or cells: Xenopus laevis oocytes, microinjected with in vitro transcribed mRNA
T2 sequence (P11166 1-492): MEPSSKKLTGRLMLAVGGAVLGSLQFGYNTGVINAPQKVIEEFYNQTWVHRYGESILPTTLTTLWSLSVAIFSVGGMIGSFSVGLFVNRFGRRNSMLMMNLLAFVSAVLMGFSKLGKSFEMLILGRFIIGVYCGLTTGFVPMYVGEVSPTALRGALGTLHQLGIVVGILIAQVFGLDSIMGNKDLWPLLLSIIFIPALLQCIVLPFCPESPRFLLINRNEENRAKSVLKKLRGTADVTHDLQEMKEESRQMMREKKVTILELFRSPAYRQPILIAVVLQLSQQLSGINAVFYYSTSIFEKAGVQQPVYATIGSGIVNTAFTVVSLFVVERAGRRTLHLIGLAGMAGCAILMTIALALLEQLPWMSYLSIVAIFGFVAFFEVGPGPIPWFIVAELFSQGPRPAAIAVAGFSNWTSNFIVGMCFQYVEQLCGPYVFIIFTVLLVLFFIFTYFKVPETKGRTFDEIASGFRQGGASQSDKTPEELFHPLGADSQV
Protocol: as §1, §2, §3

[4] = Glucose tolerance after acute indinavir administration in rats; assay type: in vivo, male Wistar rats
Text: (§4) Male Wistar rats (Charles River Corp) weighing between 250-400 g were used for all experiments described below. Glucose measurements were made using a Glucometer Elite Glucometer (Bayer Corporation, Diagnostics Division, Tarrytown, N.Y.). […] Jugular vein and carotid artery catheters were fabricated using microrenathane tubing (Braintree Scientific) for venous catheters and PE50 tubing (Becton Dickenson) for arterial catheters. Catheters were inserted surgically under methohexital (Jones Pharma Inc, St. Louis, Mo.) anesthesia. Humulin R insulin (Eli Lilly, Indianapolis, Ind.) was used where indicated.

[5] = Euglycemic hyperinsulinemic clamp (peripheral insulin sensitivity) in rats; assay type: in vivo, male Wistar rats; details: for reduction in peripheral insulin sensitivity (average GIR) compared with controls: infusion started 30 min before clamp, p<0.05
Protocol: Jugular vein and carotid artery catheters were inserted, at least 4 days prior to each experiment, into 200-400 gm male Wistar rats under methohexital anesthesia. Following an overnight fast, rats were infused with insulin (40 mU/kg/min) and 50% dextrose through the venous catheter. Blood was sampled every 5-10 minutes through the arterial catheter and serum glucose concentrations were determined. The glucose infusion rate (GIR) space was adjusted to maintain glucose levels of 100-110 mg/dl.
Male Wistar rats weighing 200-300 gm were catheterized as described in FIG. 5. […] After 30 minutes, insulin (40 mU/kg/min) and 50% dextrose were added to the intravenous infusion. Blood was sampled through the arterial line every 5 min and the dextrose infusion rate was adjusted to maintain plasma glucose levels between 105-115 mg/dL. GIR represents the mean glucose infusion rate during the final 30 minutes of each 2 hour clamp experiment. Results represent the mean±SEM from 3-5 rats per group. [* indicates […]]
as §4
Peripheral insulin sensitivity in rats was assessed by the euglycemic hyperinsulinemic clamp technique. Venous and arterial catheters were surgically inserted into the animals under anesthesia. At least 4 d prior to the initiation of experimental treatments catheters were inserted into both jugular vein and carotid artery locations. Following a 12 hour fast, animals were infused with insulin (40 mU/kg/min) and 50% dextrose in water through the venous catheter. Blood was sampled every 5-10 min through the arterial catheter for serum glucose determinations. The rate of glucose infusion (Glucose Infusion Rate, GIR) was adjusted as necessary to maintain serum glucose at 100-110 mg/dl (FIGS. 5A, 5B, 5C).
Insulin sensitivity was assessed by the average glucose infusion rate required to maintain euglycemia after equilibrium had been established.

Glut1 [6] = assay: Immunoblot of Glut1 content in PM and LDM fractions of 3T3-L1 adipocytes (translocation); details: indinavir-treated cells, 100 μM for 4 h
Glut4 [7] = assay: Immunoblot of Glut4 content in PM and LDM fractions of 3T3-L1 adipocytes (translocation); details: indinavir-treated cells, 100 μM for 4 h

inhibition at 50 µM (Glut4 [1]): 42%
Structure (SMILES): CC(C)c1nc(CN(C)C(=O)N[C@H](C(=O)N[C@@H](Cc2ccccc2)C[C@H](O)[C@H](Cc2ccccc2)NC(=O)OCc2cncs2)C(C)C)cs1 [ritonavir]
effect on insulin-stimulated glucose uptake relative to indinavir (3T3-L1 adipocytes): comparable to that of indinavir

IR autophosphorylation and tyrosine phosphorylation of IRS-1 [2]: occurred normally
effect on Glut1 activity in Xenopus oocytes (Glut1 [3]): no effect
inhibition at 100 µM (Glut4 [1]; 100 μM (maximum dose tested)): 45%
Structure (SMILES): CC(C)(C)NC(=O)[C@@H]1CN(Cc2cccnc2)CCN1C[C@@H](O)C[C@@H](Cc1ccccc1)C(=O)N[C@H]1c2ccccc2C[C@H]1O [indinavir]
inhibition at 10 µM (3T3-L1 adipocytes; Mus musculus, 3T3-L1, 10 μM, added 6 min prior to assay, 1 μM insulin, p<0.0001, read-out: inhibition of insulin-stimulated glucose uptake): 26%
inhibition at 100 µM (3T3-L1 adipocytes; Mus musculus, 3T3-L1, 100 μM, added 6 min prior to assay, 1 μM insulin for 20 min, read-out: inhibition of insulin-stimulated glucose uptake): 63%
effect on basal glucose uptake (3T3-L1 adipocytes; 20 μM): modest increase
effect on basal glucose uptake (3T3-L1 adipocytes; 10-100 μM): largely unaffected
extent of inhibition of transport activity when added before or after 20 min of insulin stimulation (3T3-L1 adipocytes; data not shown): did not change
time to restoration of normal insulin-responsive glucose uptake after removal of drug (3T3-L1 adipocytes; data not shown): ≤ 30 min
effect on insulin-stimulated phosphorylation of Akt on threonine 308 or serine 473 [2]: no effect
blood glucose concentration at t=30 min ([4]; 10 mg/kg i.p. together with dextrose 2 g/kg i.p., control 195±15, p<0.05): 241 ± 11 mg/dL
peak plasma glucose concentration ([4]; 15 mg/kg i.v. 5 min prior to glucose 2 gm/kg i.p., control 311±30): 407 ± 25 mg/dL
reduction in peripheral insulin sensitivity (average GIR) compared with controls ([5]; 0.3 mg/kg/min): 15%
reduction in peripheral insulin sensitivity (average GIR) compared with controls ([5]; 0.5 mg/kg/min): 40%
time to restoration of insulin sensitivity to baseline after stopping infusion ([5]; after stopping indinavir infusion): ≤ 4 h
decrease in GIR required to maintain euglycemia ([5]; i.v. infusion 0.3 mg/kg/min): 20%
decrease in GIR required to maintain euglycemia ([5]; i.v. infusion 0.5 mg/kg/min, within 90 minutes after start): 50%
increase with insulin of Glut1 content in plasma membrane (PM) fraction (Glut1 [6]): 63%
increase with insulin of Glut4 content in plasma membrane (PM) fraction (Glut4 [7]): 38%

inhibition at 50 µM (Glut4 [1]): 54%
Structure (SMILES): CC(C)CN(C[C@@H](O)[C@H](Cc1ccccc1)NC(=O)O[C@H]1CCOC1)S(=O)(=O)c1ccc(N)cc1 [amprenavir]
effect on insulin-stimulated glucose uptake relative to indinavir (3T3-L1 adipocytes): comparable to that of indinavir
